Laboratory results published in US20200011856A1, “Method for Determining the Effectiveness of Treatment for the Prevention of Heartworm Disease” (priority 2017, published 2020).
Values joined by “and” are separate entries in the source; they are usually repeats but may differ in a detail not shown here. Identical values can stand only once.

How the values were obtained:
Dirofilaria immitis = test: D. immitis L3 infection of NSG mice (FR3 Missouri strain or strain not stated), treatment, recovery and count of worms at necropsy; assay type: in vivo; details: for % Rec, Mean / Mean % Rec: group mean
[1] = system: Dirofilaria immitis (Merial worms, UC strain); test: D. immitis L3 infection of NSG mice with Merial worms / UC strain, treatment, recovery and count of worms; assay type: in vivo; details: for % Rec, Mean / Mean % Rec: group mean; for Mean Survival / Survival, Mean: in vivo
[2] = Table 9, NSG mice, 50 Di L3, 1 mg/kg on Days 1, 15, and 30, recovery Days 41 to 43
[3] = Table 11, NSG mice, 50 Di L3, 1 mg/kg on Days 1, 15, and 30, recovery Days 41 to 42
[4] = Table 11, NSG mice, 50 Di L3, 5 mg/kg on Days 1, 15, and 30, recovery Days 41 to 42
[5] = NSG mice, 50 Di L3 Merial worms, 1 mg/kg on Days 1, 15, and 30, recovery Days 41 to 43
[6] = NSG mice, 50 Di L3 UC strain, High Dose 5 mg/kg on Days 1, 15, and 30, recovery Days 41 and 42
[7] = NSG mice, 50 Di L3 UC strain, Normal Dose 1 mg/kg on Days 1, 15, and 30, recovery Days 41 and 42

## C[C@H]1OC(=O)[C@H](CC(C)(C)C)N(C)C(=O)[C@@H](Cc2ccc(C3CCOCC3)cc2)OC(=O)[C@H](CC(C)(C)F)N(C)C(=O)[C@@H](C)OC(=O)[C@H](CC(C)(C)C)N(C)C(=O)[C@@H](Cc2ccc(C3CCOCC3)cc2)OC(=O)[C@H](CC(C)(C)F)N(C)C1=O [compound 4838]
Dirofilaria immitis; 4838 1 mg/kg days 1, 15, 30, 50 Di L3 (FR3 worms) per NSG mouse, Table 17, vs Control
  % Red: % Red: 50%
Dirofilaria immitis; 4838 1 mg/kg days 1, 15, 30, 50 Di L3 (FR3 worms) per NSG mouse, recovery Days 41 and 42, Table 17
  % Rec, Mean: 14%
Dirofilaria immitis; 4838 1 mg/kg days 1, 15, 30, 50 Di L3 (FR3 worms) per NSG mouse, recovery Days 41 and 42, Table 17, individual mice, 1 mg/kg
  % Rec: 10% (2×) and 20% and 16% (2×) and 12% (2×)
Dirofilaria immitis; 4838 2.5 mg/kg days 1, 15, 30, 50 Di L3 (FR3 worms) per NSG mouse, Table 17, vs Control
  % Red: % Red: 76%
Dirofilaria immitis; 4838 2.5 mg/kg days 1, 15, 30, 50 Di L3 (FR3 worms) per NSG mouse, recovery Days 41 and 42, Table 17
  % Rec, Mean: 6%
Dirofilaria immitis; 4838 2.5 mg/kg days 1, 15, 30, 50 Di L3 (FR3 worms) per NSG mouse, recovery Days 41 and 42, Table 17, individual mice, 2.5 mg/kg
  % Rec: 2% and 12% and 4% (3×) and 10% and 8%
Dirofilaria immitis; 4838 5 mg/kg days 1, 15, 30, 50 Di L3 (FR3 worms) per NSG mouse, Table 17, vs Control
  % Red: % Red: 93%
Dirofilaria immitis; 4838 5 mg/kg days 1, 15, 30, 50 Di L3 (FR3 worms) per NSG mouse, recovery Days 41 and 42, Table 17
  % Rec, Mean: 2%
Dirofilaria immitis; 4838 5 mg/kg days 1, 15, 30, 50 Di L3 (FR3 worms) per NSG mouse, recovery Days 41 and 42, Table 17, individual mice, 5 mg/kg
  % Rec: 0% (4×) and 4% (3×)
Dirofilaria immitis; 4838 10 mg/kg Days 1, 15, 30, 50 Di L3 per NSG mouse, Table 14, vs Control
  % Red: 100%
Dirofilaria immitis; 4838 10 mg/kg Days 1, 15, 30, 50 Di L3 per NSG mouse, recovery Days 41 to 42, Table 14
  % Rec, Mean: 0%
Dirofilaria immitis; 4838 10 mg/kg Days 1, 15, 30, 50 Di L3 per NSG mouse, recovery Days 41 to 42, Table 14, individual mice
  % Rec: 0%
Dirofilaria immitis; 4838 10 mg/kg days 1, 15, 30, 50 Di L3 (FR3 worms) per NSG mouse, Table 17, vs Control
  % Red: % Red: 99%
Dirofilaria immitis; 4838 10 mg/kg days 1, 15, 30, 50 Di L3 (FR3 worms) per NSG mouse, recovery Days 41 and 42, Table 17
  % Rec, Mean: 0.29%
Dirofilaria immitis; 4838 10 mg/kg days 1, 15, 30, 50 Di L3 (FR3 worms) per NSG mouse, recovery Days 41 and 42, Table 17, individual mice, 10 mg/kg
  % Rec: 0% (6×) and 2%
Dirofilaria immitis; 4838 .5 mg/kg days 1, 15, 30, 50 Di L3 (FR3 worms) per NSG mouse, Table 17, vs Control
  % Red: % Red: 36%
Dirofilaria immitis; 4838 .5 mg/kg days 1, 15, 30, 50 Di L3 (FR3 worms) per NSG mouse, recovery Days 41 and 42, Table 17
  % Rec, Mean: 18%
Dirofilaria immitis; 4838 .5 mg/kg days 1, 15, 30, 50 Di L3 (FR3 worms) per NSG mouse, recovery Days 41 and 42, Table 17, individual mice
  % Rec: 22% and 8% (2×) and 34% and 16% and 12% and 28%
Dirofilaria immitis; [2]
  % Red: 24%
  Mean % Rec: 25%
Dirofilaria immitis; Table 9, individual mouse, NSG mice, 50 Di L3, 1 mg/kg on Days 1, 15, and 30, recovery Days 41 to 43
  % Rec: 26% and 30% (2×) and 12% and 14% and 32%
Dirofilaria immitis; [3]
  % Red: 21%
  Mean % Rec: 19%
Dirofilaria immitis; [4]
  % Red: 92%
  Mean % Rec: 2%
Dirofilaria immitis; Table 11, individual mouse, NSG mice, 50 Di L3, 1 mg/kg on Days 1, 15, and 30, recovery Days 41 to 42
  % Rec: 20% and 12% and 8% and 30% and 28% and 18%
Dirofilaria immitis; Table 11, individual mouse, NSG mice, 50 Di L3, 5 mg/kg on Days 1, 15, and 30, recovery Days 41 to 42
  % Rec: 4% (2×) and 2% (3×) and 0%
Dirofilaria immitis; in vivo
  Survival, Mean: 9
Dirofilaria immitis; in vivo, 1 mg/kg
  Survival: 5 and 10 and 8 and 6
  Survival, Mean: 7
Dirofilaria immitis; in vivo, 2.5 mg/kg
  Survival, Mean: 3
Dirofilaria immitis; in vivo, 5 mg/kg
  Survival, Mean: 1
Dirofilaria immitis; in vivo, 10 mg/kg
  Survival, Mean: 0
[1]; 4838 1 mg/kg Days 1, 15, 30, 50 Di L3 (UC Strain) per NSG mouse, recovery Days 41 to 43
  % Rec, Mean: 9%
[1]; 4838 1 mg/kg Days 1, 15, 30, 50 Di L3 (UC Strain) per NSG mouse, recovery Days 41 to 43, individual mice, 1 mg/kg
  % Rec: 10% and 14% and 8% and 20% and 6% (2×) and 2%
[1]; 4838 1 mg/kg Days 1, 15, 30, 50 Di L3 (UC Strain) per NSG mouse, vs Control
  % Red: 75%
[1]; 4838 5 mg/kg Days 1, 15, 30, 50 Di L3 (UC Strain) per NSG mouse, recovery Days 41 to 43
  % Rec, Mean: 2%
[1]; 4838 5 mg/kg Days 1, 15, 30, 50 Di L3 (UC Strain) per NSG mouse, recovery Days 41 to 43, individual mice, 5 mg/kg
  % Rec: 2% (4×) and 0% and 4% (2×)
[1]; 4838 5 mg/kg Days 1, 15, 30, 50 Di L3 (UC Strain) per NSG mouse, vs Control
  % Red: 94%
[1]; [5]
  % Red: 38%
  Mean % Rec: 21%
[1]; [6]
  % Red: 92%
  Mean % Rec: 3%
[1]; [7]
  % Red: 58%
  Mean % Rec: 15%
[1]; 1 mg/kg
  Mean Survival: 10 and 8
  Survival, Mean: 5
[1]; 5 mg/kg
  Mean Survival: 1
  Survival, Mean: 1
[1]; individual mouse, NSG mice, 50 Di L3 Merial worms, 1 mg/kg on Days 1, 15, and 30, recovery Days 41 to 43, 1 mg/kg
  % Rec: 20% (3×) and 12% and 24% and 16% (2×) and 36%
[1]; individual mouse, NSG mice, 50 Di L3 UC strain, High Dose 5 mg/kg on Days 1, 15, and 30, recovery Days 41 and 42, 5 mg/kg
  % Rec: 4% (4×) and 0% and 2% (2×)
[1]; individual mouse, NSG mice, 50 Di L3 UC strain, Normal Dose 1 mg/kg on Days 1, 15, and 30, recovery Days 41 and 42, 1 mg/kg
  % Rec: 14% (3×) and 16% (3×) and 18%
